Assay results: patent US3958011A, “Compositions of tri-n-propylacetic acid and salts thereof and treatment of neurological disorders with such compositions” (priority 1972, dated 1976)

What was measured:
[1] = Acute toxicity (LD50), technique of Karber and Behrens; conditions: mouse, in vivo, ip
Experimental: (§1) The LD50 was determined on the mouse by intraperitonel route using the technique of KARBER and BEHRENS.

mouse = test: as above; conditions: intraperitoneal LD50, in words
Experimental: as §1

[2] = Rota rod test (neurotoxicity); type: in vivo; conditions: mouse, ip, mice, intraperitoneal, 30 min after administration, read-out: NTD50 (neurotoxic dose 50) in the rota rod test
Experimental: The test used was that known as the rota rod test (BOISSIER-Therapie 1958, XIII, pp. 1074-1118). This test aims at enabling the animals' ability to coordinate their movements to be evaluated. It is carried out on batches of 10 mice each weighing about 25 g. The compound to be tested is administered by intraperitoneal route to the animals of each batch so that each batch receives a higher dose than that given to the preceding batch. Thirty minutes after administration, the mice are placed for two minutes on a wooden roller of 4.8 cm diameter which turns at the rate of 4 revolutions per minute. The roller has a rough surface to prevent the animals from slipping.
By this means, the neurotoxic dose 50 (NTD 50) can be determined, i.e. the dose of the compound with which one half of the animals can no longer stay on the roller during the period of time fixed as the reference period.
In order to obtain an activity index figure 30 minutes after administration the rota rod test described above was also performed using for comparison a known myorelaxant, namely mephenesin.

mice [3] = test: Pentylenetetrazol-induced seizure (anticonvulsant action); type: in vivo, mice (OF 1); conditions: Mus musculus, ip, i.p., 125 mg/kg pentylenetetrazol i.p.
Experimental: The purpose of this test which is carried out on mice is to determine whether the compounds of the invention, when given preventively by intraperitoneal route, are capable at certain doses of protecting some of the animals against the epileptic seizure produced by an adequate and predetermined dose of pentylenetetrazol which would be 100% fatal in the absence of the compound. The test was carried out on batches of 10 male OF 1 mice weighing about 25 g.

mice [4] = test: Maximum electroshock seizure (anticonvulsant action); type: in vivo, mice (OF 1)
Experimental: This seizure is characterized in the mouse by extension of the back paws for 5 to 10 seconds. The extension is similar to that observed during the tonicoclonic seizures provoked by chemical convulsants such as pentylenetetrazol or strychnine.
The test was carried out on batches of 10 mice of the OF 1 strain weighing about 22 g. […] Fifteen minutes later, each animal received an electric shock of twice threshold intensity (about 60 volts).
This latter value is indicated by the symbol HD50 or hypnotic dose 50 and the efficacy index by the fraction: [formula]

mice [5] = test: Traction test (myorelaxant properties); type: in vivo, mice (OF 1); conditions: for Number of animals which have lost the traction reflex: groups of 10; for ED50: Mus musculus, ip, read-out: ED50, loss of traction reflex
Experimental: This test enables sense of balance as well as muscular tonus and strength to be evaulated.
The test is carried out on groups of 10 male mice of the OF 1 strain weighing about 25 g. It consists of suspending the mice by the front paws to a horizontally stretched wire. Note is first taken of the time required by a group of control animals to effect recovery i.e. to place at least one of their back paws on the wire.

mice [6] = test: Posture reflex (hypnotic properties); type: in vivo, mice (OF 1); conditions: Mus musculus, ip, i.p., read-out: HD50, loss of posture reflex
Experimental: Male mice of the OF 1 strain, weighing about 25 g. were divided into batches of 10. The animals of each batch were given an intraperitoneal dose of the compound to be studied so that each batch received a higher dose than the preceding batch.
The numbers of animals which lost the reflex at various times after administration were noted.
In this way, the HD50 at different times after administration was determined i.e. the dose of the compound under study which caused 50% of the animals to lose the posture reflex at a given time after administration.

mice [7] = test: Chimney test (tranquillizing properties); type: in vivo; conditions: Mus musculus, ip; 50% failed to get out of the test-tube within 30 seconds
Experimental: This test enables two groups of factors to be evaluated namely neuromuscular factors (muscular strength, agility, coordination of movements) and psychological factors (curiosity, fright, flight instinct).
It was carried out on batches of 10 mice weighing about 25 g each. The compound to be studied was given to each batch by intraperitoneal route so that each batch received a higher dose than the preceding batch. The mice were placed, one after another, head first in a test-tube 30 cm long and calibrated in accordance with the size of the mouse so that by moving backwards the animal could get out of the tube in less than 30 seconds. The number of animals which were unable to do this was noted.

rats = test: Anoxic seizure induced by gallamine triiodoethylate (antianoxic properties); type: in vivo, rats (OFA); conditions: 2 millimols/kg
Source text: The injection of a sufficient dose of a synthetic curariform substance such as gallamine triiodoethylate provokes in the rat paralysis of the diaphragm. The animal then dies by asphyxia.
Male rats of the OFA strain and weighing about 250 g. were first anesthetized with ether in order to enable tracheotomy to be performed and cortical electrodes to be inserted. Each rat was then maintained under conditions of artificial respiration by means of an appropriate apparatus and a paralysing dose of gallamine triiodoethylate was administered by intraperitoneal route to eliminate spontaneous breathing. The electrocorticogram, the electrocardiogram and the rectal temperature were registered. After a period of 30 minutes during which stabilization of the registrations was obtained the animal was treated with 2 millimols/kg of an oily solution of tri-n-propylacetic acid or an aqueous solution of one of its alkali metal salts. The artificial respiratory apparatus was stopped 5 minutes after treatment and note was taken of the cardiac frequency every 10 seconds as well as of the period of time between the stopping of the apparatus and the appearance of the flat tracing on the electrocorticogram. This period of time represents the period of survival of the animal. The value of the cardiac frequency corresponding to moment of appearance of the flat tracing was calculated by extrapolation.
The same test was performed on control animals but without administration of a compound of the invention.

[8] = 0.25 h, 15 min. after administration
[9] = 0.5 h, 30 min. after administration

In the case of `CCCC(CCC)(CCC)C(=O)[O-].[Na+]` [Sodium tri-n-propylacetate, sodium tri-n-propylacetate], the LD50 [1] is reported as 327 mg/kg, the selectivity ratio [1] is reported as 20 to 80 and the “Acute toxicity compared with diazepam” value (mouse) is reported as “much less toxic than diazepam”. It also gave a TD50 at 0.5 h [2] of 120 mg/kg, an ED50 (mice [3]; 0.125 h, 7 min. 30 sec after administration) of 78 mg/kg and an ED50 (mice [3]; [8]) of 66 mg/kg. For the same molecule, the ED50 (mice [3]; [9]) was 110 mg/kg, the ED50 (mice [4]; Mus musculus, ip, 0.25 h, i.p., 15 min after administration, protection of 50% against tonic seizures) was 130 mg/kg and the “Efficacy index (HD50 compared with ED50)” value (mice [4]; electroshock ED50 versus hypnotic dose 50) was 1.0. For the same molecule, the “Number of animals which have lost the traction reflex” value (shortened to “Number”) (mice [5]; 20 mg/kg i.p., 15 min.) was 1, the “Number” value (mice [5]; 20 mg/kg i.p., 30 min.) was 2 and the “Number” value (mice [5]; 20 mg/kg i.p., 45 min.) was 0. The “Number” value (mice [5]; 50 mg/kg i.p., 15 min.) was 0, the “Number” value (mice [5]; 50 mg/kg i.p., 30 min.) was 1 and the “Number” value (mice [5]; 50 mg/kg i.p., 45 min.) was 2. The “Number” value (mice [5]; 75 mg/kg i.p., 15 min.) was 3, the “Number” value (mice [5]; 75 mg/kg i.p., 30 min.) was 0 and the “Number” value (mice [5]; 75 mg/kg i.p., 45 min.) was 1. For the same molecule, the “Number” value (mice [5]; 100 mg/kg i.p., 15 min.) was 8, the “Number” value (mice [5]; 100 mg/kg i.p., 30 min.) was 1 and the “Number” value (mice [5]; 100 mg/kg i.p., 45 min.) was 0. The “Number” value (mice [5]; 150 mg/kg i.p., 15 min.) was 10, the “Number” value (mice [5]; 150 mg/kg i.p., 30 min.) was 10 and the “Number” value (mice [5]; 150 mg/kg i.p., 45 min.) was 9. The ED50 (mice [5]; 0.25 h) was 80 mg/kg, the ED50 (mice [5]; 0.5 h) was 110 mg/kg and the ED50 (mice [5]; 0.75 h) was 130 mg/kg. The “Time of maximum myorelaxant activity after administration” value (mice [5]; intraperitoneal) was 15 min, the “Activity index: NTD50/ED50” value (mice [5]; rota rod NTD50 / traction ED50, 30 minutes after administration) was 1.1 and the ED50 (mice [6]; [8]) was 120 mg/kg. The ED50 (mice [6]; [9]) was 130 mg/kg, the ED50 (mice [6]; 0.75 h, 45 min. after administration) was 150 mg/kg and the ED50 (mice [6]; 1 h, 60 min. after administration) was 200 mg/kg. For the same molecule, the ED50 (mice [7]) was 72 mg/kg, the “Increase of period of survival versus controls” value (rats) was 19% and the Period of survival (rats; controls 74.3 ± 2.3) was 87.9 ± 3.7 s. The “Cardiac frequency when the flat tracing appears” value (rats; controls 150, calculated by extrapolation) was 109.
